Results: patent US4517180A, “Peptides, process for preparing the same and psychodepressant compositions containing the same” (Amano Pharmaceutical Co., Ltd, priority 1982, dated 1985)
Where a SMILES comes first, the peptide text is derived from it.

How the values were obtained:
Type in all cases: in vivo
male Wister rats [1] = assay: Effect on metabolism of amine in the brain; details: 1 mg/kg s.c., 1 hour after administration
Description: Effect on metabolism of amine in the brain
Unfasted male Wister rats (weighing 180 to 220 g) were used. Peptide A or peptide B was subcutaneously given to the animal at a dose of 1 mg/kg, the head was irradiated with microwave 1 hour thereafter, and amine metabolite was extracted from the brain. First, removed tissues were homogenized with 1M formic acid and centrifuged at 20,000×g for 20 minutes, and the supernatant (1 ml) was shaken with 5 ml of ethyl acetate. The 3,4-dihydroxyphenylacetic acid (DOPAC), homovanillic acid (HVA) and 5-hydroxyindoleacetic acid (5-HIAA) in the ethyl acetate layer were analyzed by high-performance liquid chromatography under the following conditions. Chemcosorb, 5-ODS, 20 cm×4.6 mm I.D. was used for a separating column, and a mobile phase (0.1M KH2 PO4 (pH 5.0)-5 mM EDTA-2Na-5% acetonitrile) was passed through the colunn at a flow rate of 1 ml/min. The electrochemical detector was set to an oxidation potential of +0.8 V.

Male ddy mice [2] = assay: Effect on hyperlocomotion induced by thyrotropin releasing hormone (TRH); details: for Activity counts (frequency per 60 min): Mean ± S.E.: 30 min before TRH 5 mg/kg i.p., control 1215 ± 114; for Effect on hyperlocomotion induced by TRH (in words): mice, s.c.
Description: Effect on hyperlocomotion induced by thyrotropin releasing hormone (TRH)
Male ddy mice (weighing 18 to 24.5 g) were used. The mice were placed into a transparent acrylic resin cage (26×37×11 cm) installed on Animex meter. Before experiment, the mice were allowed to habituate for 2 hours in the cage to fully lower the activity of the mice. After the completion of habituation, peptide A, peptide B or a diluent (physiological saline containing 1 mg/ml of sodium hydrogencarbonate) serving as a control was subcutaneously given to the mice. Thirty minutes thereafter, 5 mg/kg of TRH was intraperitoneally given to the animals. The activity counts during the period of 60 minutes following the administration of TRH was measured. Student's t-test was resorted to for statistical treatment.

Male ddy mice [3] = assay: Effect on climbing behavior induced by apomorphine (Pharmacological Test 2); set-up: key to Average: Mean ± S.E. (total of 7 scores), climbing behavior: sum of 7 scores; 0 = all four legs on floor, 2 = ≥3 legs on rods; details: for Average: Mean ± S.E. (total of 7 scores), climbing behavior: 30 min before apomorphine 0.75 mg/kg s.c., control 9.8 ± 0.7; for Effect on apomorphine-induced climbing behavior (in words): mice, s.c.
Description: (§1) Effect on climbing behavior induced by apomorphine
Male ddy mice (weighing 20 to 30 g) were used, with 10 mice in each group. Each mouse was placed into a cylindrical cage, 12 cm in diameter and 14 cm in height, made up of vertical rods of 2 mm in diameter spaced apart at a distance of 10 mm in a circular arrangement. The mouse was allowed to stand therein for 2 hours. Peptide A, peptide B, CCK-8 or, as a control, the above-mentioned diluent was subcutaneously given to the animal, and 30 minutes later, 0.75 mg/kg of apomorphine was subcutaneously given. […] The test was carried out in soundproof compartments.
(§2) 0: All the four legs are on the floor.
(§3) 2: At least three legs are on rods.
Student's t-test was resorted to for statistical treatment.

male Wister rats [4] = assay: Effect on yawning behavior induced by apomorphine; details: for Number of yawns (average): 30 min before apomorphine 0.03 mg/kg s.c., counted 30 min, control 4.5; for Effect on yawning behavior induced by apomorphine (in words): rats, s.c.
Description: Effect on yawning behavior
Male Wister rats (weighing 200 to 300 g) were used, with 10 rats in each group. The rat was placed into a plastics cage (17×24×12 cm) with a floor mat and was then habituated for 30 minutes. Peptide A, peptide B, CCK-8 or the above-mentioned diluent serving as a control was subcutaneously given to the animal. Thirty minutes thereafter, 0.03 mg/kg of apomorphine was subcutaneously given to the animal. The number of yawns induced by apomorphine was counted during a period of 30 minutes following administration of apomorphine. The test was conducted in a soundproof compartment for each animal. Wilcoxon rank-sum test was resorted to for statistical treatment.

male Wister rats [5] = assay: Effect on the fixed ratio (FR20) responding in rats; details: s.c., 15 min before 20 min session, dose giving count 50 with control as 100
Description: Effect on the fixed ratio responding in rats
The test was conducted according to the method described in Ahlenius S. and Engel J., Eur. J. Pharm., Vol. 15, 187-192 (1971).
Male Wister rats (weighing 240 to 320 g) were placed into Skinner box (product of Bil-Medika Co., Ltd., Japan, adapted to give a feed when a lever within the box is pressed) and made to learn how to take the food. In this test, one feed was given to the rats when the lever was pressed 20 times, i.e., fixed ratio (FR) 20. The rats showing stable FR20 response were divided into groups each including four rats.
Physiological saline (containing 1 mM of sodium hydrogencarbonate) containing a specified amount of a test compound was subcutaneously given to the rats of one group in a volume of 0.1 ml/100 g. (Physiological saline containing the above-mentioned amount of sodium hydrogencarbonate only was given to the control group). Fifteen minutes after the administration, the test animals were placed in the Skinner box, and the number of times the animals took the feed for 20 minutes was counted. The dose at which the count gained by the group of animals was 50, namely, ED50 value, was determined, with the count gained by the control group calculated as 100. The same procedure as above was repeated with use of the other test compounds.

Male ddy mice [6] = assay: Effect on climbing behavior induced by apomorphine (Pharmacological Test 7); set-up: key: sum of 7 scores; each 0 = four legs on floor, 2 = ≥3 legs on rods; details: control 9.8 ± 0.7
Description: as §1
Male ddy mice (weighing 20 to 30 g) were used, with 10 mice in each group. Each mouse was placed into a cylindrical cage, 12 cm in diameter and 14 cm in height, made up of vertical rods of 2 mm in diameter spaced apart at a distance of 10 mm in a circular arrangement. The mouse was allowed to stand therein for 2 hours. Physiological saline containing a specified amount of a test compound (and 1 mM of sodium hydrogencarbonate) was subcutaneously given to one group of mice in a volume of 1 ml/10 g. (The same dose of saline only was given to a control group). […] The test was carried out in soundproof compartments.
as §2, §3
The other compounds were tested in the same manner as above. The test was carried out in soundproof compartments. Student's t-test was resorted to for statistical treatment.

Male ICR mice = assay: Inhibitory effect on hyperlocomotion induced by administration of methylphenidate
Description: Inhibitory effect on hyperlocomotion induced by administration of methylphenidate
Male ICR mice (weighing 24 to 30 g) were divided into groups, each including 10 mice. To one group of mice were subcutaneously given 10 mg/kg of methylphenidate and 0.1 ml/10 g of a saline solution of a specified amount of a test compound and 1 mM of sodium hydrogencarbonate. One hour after the administration, the test animals were checked for hyperlocomotion, which was measured with use of a device for measuring locomotion of small animals (wherein the motion of an animal shifts the center of graavity of the device to actuate a microswitch for the measurement of the amount of motion, see Folia Pharmacologica Japonica, 74, 629-639 (1978). For a control group, the same procedure as above was repeated except that the saline solution given was free from any test compound. The concentration of the test compound at which the result achieved by the group of animals was 50, namely, ED50 value, was determined, with the measurement obtained by the control group calculated as 100. The other compounds were tested in the same manner as above.

Structure (SMILES) | Increase of DOPAC content in hypothalamus (male Wister rats [1]) | Influence on content of metabolite (DOPAC, HVA, 5-HIAA) in frontal cortex, limbic forebrain and striatum (male Wister rats [1]) | Activity counts (frequency per 60 min): Mean ± S.E. (Male ddy mice [2]; 0.1 mg/kg s.c.) [frequency per 60 min] | Activity counts (frequency per 60 min): Mean ± S.E. (Male ddy mice [2]; 0.3 mg/kg s.c.) [frequency per 60 min] | Effect on hyperlocomotion induced by TRH (in words) (Male ddy mice [2]) | Average: Mean ± S.E. (total of 7 scores), climbing behavior (Male ddy mice [3]; 0.01 mg/kg s.c.) | Average: Mean ± S.E. (total of 7 scores), climbing behavior (Male ddy mice [3]; 0.1 mg/kg s.c.) | Average: Mean ± S.E. (total of 7 scores), climbing behavior (Male ddy mice [3]; 1 mg/kg s.c.) | Effect on apomorphine-induced climbing behavior (in words) (Male ddy mice [3]) | Number of yawns (average) (male Wister rats [4]; 1 mg/kg s.c.) | Effect on yawning behavior induced by apomorphine (in words) (male Wister rats [4]) | further results
CSCC[C@H](NC(=O)[C@H](Cc1ccc(OS(=O)(=O)O)cc1)NC(=O)[C@H](CC(=O)O)NC(=O)[C@@H]1CCC(=O)N1)C(=O)NCC(=O)N[C@@H](Cc1c[nH]c2ccccc12)C(=O)N[C@@H](CCSC)C(=O)N[C@@H](CC(=O)O)C(=O)N[C@@H](Cc1ccccc1)C(N)=O [Peptide B, pGlu--Asp--Tyr(SO3 H)--Met--Gly--Trp--Met--Asp--Phe--NH2] | about 60% | Neither of peptide A and peptide B was found to influence | 601 ± 78 | 626 ± 143 | inhibit the hyperlocomotion induced by TRH | 8.7 ± 0.8 | 5.4 ± 0.8 | 4.7 ± 1.1 | inhibit the climbing behavior | 1.0 | inhibit the yawning behavior induced by apomorphine | Activity counts (frequency per 60 min): Mean ± S.E. (Male ddy mice [2]; 0.03 mg/kg s.c.): 1009 ± 165 frequency per 60 min
CSCC[C@H](NC(=O)[C@H](Cc1ccc(OS(=O)(=O)O)cc1)NC(=O)CCCC(=O)O)C(=O)NCC(=O)N[C@@H](Cc1c[nH]c2ccccc12)C(=O)N[C@@H](CCSC)C(=O)N[C@@H](CC(=O)O)C(=O)N[C@@H](Cc1ccccc1)C(N)=O [Peptide E, Glt--Tyr(SO3 H)--Met--Gly--Trp--Met--Asp--Phe--NH2] (HELM PEPTIDE1{[O=C(O)CCCC(=O)[*:2]].[O=C([C@H](Cc1ccc(OS(=O)(=O)O)cc1)N[*:1])[*:2]].M.G.W.M.D.F.[am]}$$$$V2.0) | – | – | – | – | – | – | – | – | – | – | – | ED50, inhibition of FR20 responding (male Wister rats [5]): 0.004 mg/kg; Average: Mean ± S.E. (total of 7 scores), climbing behavior (Male ddy mice [6]; 0.1 mg/kg s.c.): 9.1 ± 0.9; Average: Mean ± S.E. (total of 7 scores), climbing behavior (Male ddy mice [6]; 0.3 mg/kg s.c.): 7.9 ± 0.9; Average: Mean ± S.E. (total of 7 scores), climbing behavior (Male ddy mice [6]; 1.0 mg/kg s.c.): 6.5 ± 0.7; Inhibitory effect on methylphenidate-induced hyperlocomotion (in words) (Male ICR mice; s.c.): especially high inhibitory effect; ED50, inhibition of methylphenidate-induced hyperlocomotion (Male ICR mice; s.c. with methylphenidate 10 mg/kg s.c., measured 1 hour after, 50 with control as 100): 0.0879 mg/kg
CSCC[C@H](NC(=O)[C@H](Cc1ccc(OS(=O)(=O)O)cc1)NC(=O)[C@H](CC(=O)O)NC(=O)CCCC(=O)O)C(=O)NCC(=O)N[C@@H](Cc1c[nH]c2ccccc12)C(=O)N[C@@H](CCSC)C(=O)N[C@@H](CC(=O)O)C(=O)N[C@@H](Cc1ccccc1)C(N)=O [Peptide A, Glt--Asp--Tyr(SO 3 H)--Met--Gly--Trp--Met--Asp--Phe--NH2] | about 60% | Neither of peptide A and peptide B was found to influence | 936 ± 115 | 613 ± 114 | inhibit the hyperlocomotion induced by TRH | 8.6 ± 0.6 | 5.3 ± 0.5 | 4.5 ± 1.0 | inhibit the climbing behavior | 0 | inhibit the yawning behavior induced by apomorphine | Activity counts (frequency per 60 min): Mean ± S.E. (Male ddy mice [2]; 1 mg/kg s.c.): 148 ± 34 frequency per 60 min; Average: Mean ± S.E. (total of 7 scores), climbing behavior (Male ddy mice [3]; 0.03 mg/kg s.c.): 7.9 ± 0.6; Average: Mean ± S.E. (total of 7 scores), climbing behavior (Male ddy mice [3]; 0.3 mg/kg s.c.): 5.1 ± 0.7; Number of yawns (average) (male Wister rats [4]; 0.3 mg/kg s.c.): 1.5
